# Laboratory results taken from US9302999B2, “Substituted triazoles as herbicides” (E. I. DU PONT DE NEMOURS AND COMPANY, priority 2012, dated 2016).
# Key:
# Format in all cases: in vivo
# [1] = test system: ducksalad (Heteranthera limosa); assay: Test C flooded paddy test: ducksalad; details: scale 0 to 100 (0 no effect, 100 complete control)
# Outline: (§1)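 Plants at 2-leaf stage in pots flooded 3 cm above soil; compounds applied directly into the paddy water, depth maintained. Visual rating against controls after 13–15 days in greenhouse, scale 0 (no effect) to 100 (complete control).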
# [2] = test system: crabgrass, large (large crabgrass, Digitaria sanguinalis); assay: Test A pre-/postemergence: crabgrass, large; details: for Crabgrass, Large plant response rating: Postemergence; for Plant response rating, Crabgrass, Large: Preemergence
# Outline: (§2)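 Soil medium was loam blended with sand; treatments pre- and postemergence were applied concurrently, postemergence at one- to two-leaf stage. Approximately ten days in greenhouse preceded visual comparison with untreated controls, scored 0 (no effect) to 100 (complete control).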
# corn (Zea mays) = assay: Test A pre-/postemergence: corn; details: for Corn plant response rating: Postemergence; for Plant response rating, Corn: Preemergence
# Outline: as §2
# [3] = test system: barnyardgrass (Echinochloa crus-galli); assay: Test C flooded paddy test: barnyardgrass; details: scale 0 to 100 (0 no effect, 100 complete control)
# Outline: as §1
# [4] = test system: sedge, umbrella (small-flower umbrella sedge, Cyperus difformis); assay: Test C flooded paddy test: sedge, umbrella; details: scale 0 to 100 (0 no effect, 100 complete control)
# Outline: as §1
# [5] = test system: velvetleaf (Abutilon theophrasti); assay: Test A pre-/postemergence: velvetleaf; details: for Velvetleaf plant response rating: Postemergence; for Plant response rating, Velvetleaf: Preemergence
# Outline: as §2
# [6] = test system: wheat (Triticum aestivum); assay: Test A pre-/postemergence: wheat; details: for Wheat plant response rating: Postemergence; for Plant response rating, Wheat: Preemergence
# Outline: as §2
# [7] = test system: barnyardgrass (Echinochloa crus-galli); assay: Test A pre-/postemergence: barnyardgrass; details: for Barnyardgrass plant response rating: Postemergence; for Plant response rating, Barnyardgrass: Preemergence
# Outline: as §2
# [8] = test system: pigweed (Amaranthus retroflexus); assay: Test A pre-/postemergence: pigweed; details: for Pigweed plant response rating: Postemergence; for Plant response rating, Pigweed: Preemergence
# Outline: as §2
# [9] = test system: foxtail, giant (giant foxtail, Setaria faberii); assay: Test A pre-/postemergence: foxtail, giant; details: for Foxtail, Giant plant response rating: Postemergence; for Plant response rating, Foxtail, Giant: Preemergence
# Outline: as §2
# rice (Oryza sativa) = assay: Test C flooded paddy test: rice; details: scale 0 to 100 (0 no effect, 100 complete control)
# Outline: as §1
# [10] = test system: morningglory (Ipomoea spp.); assay: Test A pre-/postemergence: morningglory; details: for Morningglory plant response rating: Postemergence; for Plant response rating, Morningglory: Preemergence
# Outline: as §2
# [11] = Flood (flooded paddy test), 62 g ai/ha, visual rating after 13 to 15 days
# [12] = Flood (flooded paddy test), 250 g ai/ha, visual rating after 13 to 15 days
# [13] = 125 g ai/ha, 0 to 100 scale, 0 is no effect, 100 is complete control
# [14] = 500 g ai/ha, visual rating on 0 to 100 scale (0 no effect, 100 complete control), approximately ten days
# [15] = 125 g ai/ha, 0 to 100 scale (0 no effect, 100 complete control)
# [16] = 500 g ai/ha, 0 to 100 scale, 0 is no effect, 100 is complete control
# [17] = Flood (flooded paddy test), 125 g ai/ha, visual rating after 13 to 15 days
# [18] = 125 g ai/ha, 0 to 100 scale where 0 is no effect and 100 is complete control
smiles,measurement,setting,value
CCc1nn(-c2ccc(F)cc2)nc1Cn1ccc(C(F)(F)C(F)(F)F)n1 [Compound 10],"Plant response rating, Ducksalad",[1]; [11],0
same,"Plant response rating, Ducksalad",[1]; [12],0
same,"Crabgrass, Large plant response rating",[2]; [13],40
same,"Crabgrass, Large plant response rating",[2]; [14],60
same,"Plant response rating, Crabgrass, Large",[2]; [15],40
same,"Plant response rating, Crabgrass, Large",[2]; [16],90
same,Corn plant response rating,corn (Zea mays); [13],20
same,Corn plant response rating,corn (Zea mays); [14],20
same,"Plant response rating, Corn",corn (Zea mays); [15],0
same,"Plant response rating, Corn",corn (Zea mays); [16],0
same,"Plant response rating, Barnyardgrass",[3]; [11],0
same,"Plant response rating, Barnyardgrass",[3]; [12],0
same,"Plant response rating, Sedge, Umbrella",[4]; [11],0
same,"Plant response rating, Sedge, Umbrella",[4]; [12],0
same,Velvetleaf plant response rating,[5]; [13],40
same,Velvetleaf plant response rating,[5]; [14],50
same,"Plant response rating, Velvetleaf",[5]; [15],0
same,"Plant response rating, Velvetleaf",[5]; [16],20
same,Wheat plant response rating,[6]; [13],0
same,Wheat plant response rating,[6]; [14],10
same,"Plant response rating, Wheat",[6]; [15],0
same,"Plant response rating, Wheat",[6]; [16],0
same,Barnyardgrass plant response rating,[7]; [13],20
same,Barnyardgrass plant response rating,[7]; [14],50
same,"Plant response rating, Barnyardgrass",[7]; [15],0
same,"Plant response rating, Barnyardgrass",[7]; [16],10
same,Pigweed plant response rating,[8]; [13],70
same,Pigweed plant response rating,[8]; [14],100
same,"Plant response rating, Pigweed",[8]; [15],60
same,"Plant response rating, Pigweed",[8]; [16],80
same,"Foxtail, Giant plant response rating",[9]; [13],20
same,"Foxtail, Giant plant response rating",[9]; [14],50
same,"Plant response rating, Foxtail, Giant",[9]; [15],20
same,"Plant response rating, Foxtail, Giant",[9]; [16],80
same,"Plant response rating, Rice",rice (Oryza sativa); [11],0
same,"Plant response rating, Rice",rice (Oryza sativa); [12],0
same,Morningglory plant response rating,[10]; [13],100
same,Morningglory plant response rating,[10]; [14],100
same,"Plant response rating, Morningglory",[10]; [15],0
same,"Plant response rating, Morningglory",[10]; [16],10
Cc1nn(-c2nc(Cl)ns2)nc1C(=O)c1cccc(C(F)(F)F)c1 [Compound 59],"Plant response rating, Ducksalad",[1]; [11],0
same,"Plant response rating, Ducksalad",[1]; [17],0
same,"Plant response rating, Ducksalad",[1]; [12],0
same,"Plant response rating, Ducksalad","[1]; Flood, 31 g ai/ha",0
same,"Crabgrass, Large plant response rating",[2]; [13],0
same,"Crabgrass, Large plant response rating",[2]; [14],0
same,"Plant response rating, Crabgrass, Large",[2]; [15],0
same,"Plant response rating, Crabgrass, Large",[2]; [16],0
same,Corn plant response rating,corn (Zea mays); [13],0
same,Corn plant response rating,corn (Zea mays); [14],0
same,"Plant response rating, Corn",corn (Zea mays); [15],0
same,"Plant response rating, Corn",corn (Zea mays); [16],0
same,"Plant response rating, Barnyardgrass",[3]; [11],0
same,"Plant response rating, Barnyardgrass",[3]; [17],0
same,"Plant response rating, Barnyardgrass",[3]; [12],0
same,"Plant response rating, Barnyardgrass","[3]; Flood, 31 g ai/ha",0
same,"Plant response rating, Sedge, Umbrella",[4]; [11],0
same,"Plant response rating, Sedge, Umbrella",[4]; [17],0
same,"Plant response rating, Sedge, Umbrella",[4]; [12],0
same,"Plant response rating, Sedge, Umbrella","[4]; Flood, 31 g ai/ha",0
same,Velvetleaf plant response rating,[5]; [13],0
same,Velvetleaf plant response rating,[5]; [14],0
same,"Plant response rating, Velvetleaf",[5]; [15],0
same,"Plant response rating, Velvetleaf",[5]; [16],0
same,Wheat plant response rating,[6]; [13],0
same,Wheat plant response rating,[6]; [14],0
same,"Plant response rating, Wheat",[6]; [15],0
same,"Plant response rating, Wheat",[6]; [16],0
same,Barnyardgrass plant response rating,[7]; [13],0
same,Barnyardgrass plant response rating,[7]; [14],0
same,"Plant response rating, Barnyardgrass",[7]; [15],0
same,"Plant response rating, Barnyardgrass",[7]; [16],0
same,Pigweed plant response rating,[8]; [13],0
same,Pigweed plant response rating,[8]; [14],0
same,"Plant response rating, Pigweed",[8]; [15],0
same,"Plant response rating, Pigweed",[8]; [16],0
same,"Foxtail, Giant plant response rating",[9]; [13],0
same,"Foxtail, Giant plant response rating",[9]; [14],0
same,"Plant response rating, Foxtail, Giant",[9]; [15],0
same,"Plant response rating, Foxtail, Giant",[9]; [16],0
same,"Plant response rating, Rice",rice (Oryza sativa); [11],0
same,"Plant response rating, Rice",rice (Oryza sativa); [17],0
same,"Plant response rating, Rice",rice (Oryza sativa); [12],0
same,"Plant response rating, Rice","rice (Oryza sativa); Flood, 31 g ai/ha",0
same,Morningglory plant response rating,[10]; [13],0
same,Morningglory plant response rating,[10]; [14],0
same,"Plant response rating, Morningglory",[10]; [15],0
same,"Plant response rating, Morningglory",[10]; [16],0
Cc1nn(-c2ccc(C(F)(F)F)cn2)nc1C(=O)c1cccc(C(F)(F)F)c1 [Compound 107],"Plant response rating, Ducksalad",[1]; [17],20
same,"Plant response rating, Ducksalad",[1]; [12],40
same,"Plant response rating, Ducksalad","[1]; Flood, 31 g ai/ha",0
same,"Plant response rating, Ducksalad","[1]; Flood, 62 g ai/ha",0
same,"Crabgrass, Large plant response rating",[2]; [13],60
same,"Crabgrass, Large plant response rating",[2]; [14],90
same,"Plant response rating, Crabgrass, Large",[2]; [15],100
same,"Plant response rating, Crabgrass, Large",[2]; [16],100
same,Corn plant response rating,corn (Zea mays); [13],20
same,Corn plant response rating,corn (Zea mays); [14],30
same,"Plant response rating, Corn",corn (Zea mays); [15],0
same,"Plant response rating, Corn",corn (Zea mays); [16],10
same,"Plant response rating, Barnyardgrass",[3]; [17],20
same,"Plant response rating, Barnyardgrass",[3]; [12],25
same,"Plant response rating, Barnyardgrass","[3]; Flood, 31 g ai/ha",0
same,"Plant response rating, Barnyardgrass","[3]; Flood, 62 g ai/ha",15
same,"Plant response rating, Sedge, Umbrella",[4]; [17],60
same,"Plant response rating, Sedge, Umbrella",[4]; [12],80
same,"Plant response rating, Sedge, Umbrella","[4]; Flood, 31 g ai/ha",0
same,"Plant response rating, Sedge, Umbrella","[4]; Flood, 62 g ai/ha",40
same,Velvetleaf plant response rating,[5]; [13],40
same,Velvetleaf plant response rating,[5]; [14],50
same,"Plant response rating, Velvetleaf",[5]; [18],10
same,"Plant response rating, Velvetleaf",[5]; [16],10
same,Wheat plant response rating,[6]; [13],20
same,Wheat plant response rating,[6]; [14],40
same,"Plant response rating, Wheat",[6]; [18],0
same,"Plant response rating, Wheat",[6]; [16],0
same,Barnyardgrass plant response rating,[7]; [13],30
same,Barnyardgrass plant response rating,[7]; [14],60
same,"Plant response rating, Barnyardgrass",[7]; [15],30
same,"Plant response rating, Barnyardgrass",[7]; [16],80
same,Pigweed plant response rating,[8]; [13],90
same,Pigweed plant response rating,[8]; [14],100
same,"Plant response rating, Pigweed",[8]; [18],70
same,"Plant response rating, Pigweed",[8]; [16],100
same,"Foxtail, Giant plant response rating",[9]; [13],40
same,"Foxtail, Giant plant response rating",[9]; [14],90
same,"Plant response rating, Foxtail, Giant",[9]; [18],90
same,"Plant response rating, Foxtail, Giant",[9]; [16],100
same,"Plant response rating, Rice",rice (Oryza sativa); [17],0
same,"Plant response rating, Rice",rice (Oryza sativa); [12],25
same,"Plant response rating, Rice","rice (Oryza sativa); Flood, 31 g ai/ha",0
same,"Plant response rating, Rice","rice (Oryza sativa); Flood, 62 g ai/ha",0
same,Morningglory plant response rating,[10]; [13],70
same,Morningglory plant response rating,[10]; [14],80
same,"Plant response rating, Morningglory",[10]; [18],20
same,"Plant response rating, Morningglory",[10]; [16],30
